Measured values published in patent publication US9266834B2, “1, 4-disubstituted 3-cyano-pyridone derivatives and their use as positive allosteric modulators of MGLUR2-receptors” (JANSSEN PHARMACEUTICALS, INC., priority 2006, dated 2016).

Each compound was assayed against T1, human mGluR2 receptor (Homo sapiens, UniProt Q14416) (assay: [35S]GTPγS binding assay (GTPγS-PAM): positive allosteric modulation in presence of glutamate at EC25, membranes from transfected CHO cells). Conditions: in presence of mGluR2 agonist glutamate at predetermined EC25 concentration, averages of duplicate values of 11-concentration response curves, read-out: GTPgS - hR2 PAM pEC50 (converted).
T1 construct: expressed in transfected cells; host or cells: CHO cells (membrane preparation)
T1 sequence (Q14416 19-872): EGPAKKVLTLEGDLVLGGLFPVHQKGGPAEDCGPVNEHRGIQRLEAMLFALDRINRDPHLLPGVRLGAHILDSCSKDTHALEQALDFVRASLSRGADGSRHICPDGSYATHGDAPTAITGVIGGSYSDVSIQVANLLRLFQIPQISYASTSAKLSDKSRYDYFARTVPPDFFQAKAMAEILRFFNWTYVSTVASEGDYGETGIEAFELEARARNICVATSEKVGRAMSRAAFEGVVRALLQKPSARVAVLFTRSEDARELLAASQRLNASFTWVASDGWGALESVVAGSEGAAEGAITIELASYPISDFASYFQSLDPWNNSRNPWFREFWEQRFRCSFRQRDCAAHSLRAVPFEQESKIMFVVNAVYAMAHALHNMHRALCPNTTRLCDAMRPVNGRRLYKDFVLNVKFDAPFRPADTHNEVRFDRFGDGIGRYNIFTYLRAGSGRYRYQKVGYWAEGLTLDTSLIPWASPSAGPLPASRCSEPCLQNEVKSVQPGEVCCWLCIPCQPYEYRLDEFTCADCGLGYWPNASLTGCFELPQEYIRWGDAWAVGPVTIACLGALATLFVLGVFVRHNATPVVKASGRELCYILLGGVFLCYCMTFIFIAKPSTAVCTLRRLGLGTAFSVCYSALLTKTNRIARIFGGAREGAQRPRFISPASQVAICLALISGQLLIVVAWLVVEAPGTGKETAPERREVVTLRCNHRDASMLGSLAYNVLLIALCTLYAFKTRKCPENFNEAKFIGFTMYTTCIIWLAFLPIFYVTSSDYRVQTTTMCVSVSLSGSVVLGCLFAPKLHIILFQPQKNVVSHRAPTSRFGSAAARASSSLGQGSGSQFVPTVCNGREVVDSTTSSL
Assay type: biochemical
Description: The compounds provided in the present invention are positive allosteric modulators of mGluR2. These compounds appear to potentiate glutamate responses by binding to an allosteric site other than the glutamate binding site. The response of mGluR2 to a concentration of glutamate is increased when compounds of Formula (I) are present. Compounds of Formula (I) are expected to have their effect substantially at mGluR2 by virtue of their ability to enhance the function of the receptor. The behaviour of positive allosteric modulators tested at mGluR2 using the [^35S]GTPγS binding assay method described below and which is suitable for the identification of such compounds, and more particularly the compounds according to Formula (I), are shown in Table 4.
[^35S]GTPγS Binding Assay
The [^35S]GTPγS binding is a functional membrane-based assay used to study G-protein coupled receptor (GPCR) function whereby incorporation of a non-hydrolysable form of GTP, [^35S]GTPγS (guanosine 5′-triphosphate, labelled with […] ^35S), is measured. The G-protein o subunit catalyzes the exchange of guanosine 5′-diphosphate (GDP) by guanosine triphosphate (GTP) and on activation of the GPCR by an agonist, [^35S]GTPγS, becomes incorporated and cannot be cleaved to continue the exchange cycle (Harper (1998) Current Protocols in Pharmacology 2.6.1-10, John Wiley & Sons, Inc.). […] Here we describe the use of the [^35S]GTPγS binding assay using membranes from cells transfected with the human mGluR2 receptor and adapted from Schaffhauser et al ((2003) Molecular Pharmacology 4:798-810) for the detection of the positive allosteric modulation (PAM) properties of the compounds of this invention.
CHO-cells were cultured to pre-confluence and stimulated with 5 mM butyrate for 24 hours, prior to washing in PBS, and then collection by scraping in homogenisation buffer (50 mM Tris-HCl buffer, pH 7.4, 4° C.). Cell lysates were homogenized briefly (15 s) using an ultra-turrax homogenizer. The homogenate was centrifuged at 23 500×g for 10 minutes and the supernatant discarded. The pellet was resuspended in 5 mM Tris-HCl, pH 7.4 and centrifuged again (30 000×g, 20 min, 4° C.). The final pellet was resuspended in 50 mM HEPES, pH 7.4 and stored at −80° C. in appropriate aliquots before use. Protein concentration was determined by the Bradford method (Bio-Rad, USA) with bovine serum albumin as standard.
Measurement of mGluR2 positive allosteric modulators in membranes containing human mGluR2 was performed using frozen membranes that were thawed and briefly homogenised prior to pre-incubation in 96-well microplates (15 μg/assay well, 30 minutes, 30° C.) in assay buffer (50 mM HEPES pH 7.4, 100 mM NaCl, 3 mM MgCl2, 50 μM GDP, 10 μg/ml saponin,) with increasing concentrations of positive allosteric modulator (from 0.3 nM to 50 μM) and either a minimal pre-determined concentration of glutamate (PAM assay), or no added glutamate. For the PAM assay, membranes were pre-incubated with glutamate at EC25 concentration, i.e. a concentration that gives 25% of the maximal response glutamate, and is in accordance to published data (Pin et al. (1999) Eur. J. Pharmacol. 375:277-294). After addition of [^35S]GTPγS (0.1 nM, f.c.) to achieve a total reaction volume of 200 μl, microplates were shaken briefly and further incubated to allow [^35S]GTPγS incorporation on activation (30 minutes, 30° C.). The reaction was stopped by rapid vacuum filtration over glass-fibre filter plates (Unifilter 96-well GF/B filter plates, Perkin-Elmer, Downers Grove, USA) microplate using a 96-well plate cell harvester (Filtermate, Perkin-Elmer, USA), and then by washing three times with 300 μl of ice-cold wash buffer (Na2PO4.2H2O 10 mM, NaH2PO4.H2O 10 mM, pH=7.4). Filters were then air-dried, and 40 μl of liquid scintillation cocktail (Microscint-O) was added to each well, and membrane-bound [^35S]GTPγS was measured in a 96-well scintillation plate reader (Top-Count, Perkin-Elmer, USA). […]
With `CC(C)CCn1ccc(-c2ccc(OCCO)cc2)c(C#N)c1=O` [1-099] the EC50 was 1000 nM. `CCOc1ccc(-c2ccn(CCC(C)C)c(=O)c2C#N)cc1` [1-104] gave an EC50 of 2000 nM. `COCCCc1ccc(-c2ccn(CCC(C)C)c(=O)c2C#N)cc1` [1-106] showed an EC50 of 631 nM. With `COc1cc(-c2ccn(CCC(C)C)c(=O)c2C#N)ccc1O` [1-108] the EC50 was 6310 nM. Work on `COc1cc(-c2ccn(CCC(C)C)c(=O)c2C#N)ccc1OCCO` [1-109] yielded an EC50 of 5010 nM. For `COc1cc(F)c(-c2ccn(CCC(C)C)c(=O)c2C#N)c(F)c1` [1-116], the EC50 was 631 nM. With `CC(=O)COc1ccc(-c2ccn(CCC(C)C)c(=O)c2C#N)cc1` [1-118] the EC50 was 2000 nM. Work on `CC(C)CCn1ccc(-c2ccc(OC(F)F)cc2)c(C#N)c1=O` [1-119] yielded an EC50 of 631 nM. `CC(C)CCn1ccc(-c2ccc(OCCF)c(Cl)c2)c(C#N)c1=O` [1-121] showed an EC50 of 501 nM. With `CC(C)CCn1ccc(-c2ccc(OC3CCCC3)c(Cl)c2)c(C#N)c1=O` [1-124] the EC50 was 50.1 nM. `COc1cc(-c2ccn(CCC(C)C)c(=O)c2C#N)ccc1OC(C)=O` [1-125] gave an EC50 of 5010 nM. For `CC(=O)CCOc1ccc(-c2ccn(CCC(C)C)c(=O)c2C#N)cc1` [1-126], the EC50 was 631 nM. `CC(C)CCn1ccc(-c2ccc(COCC#N)cc2)c(C#N)c1=O` [1-132] showed an EC50 of 2000 nM. Compound `CC(C)CCn1ccc(-c2ccc(OCC3CC3)cc2)c(C#N)c1=O` [1-133] has an EC50 of 200 nM. Work on `CC(C)CCn1ccc(-c2ccc(OC3CCCC3)cc2)c(C#N)c1=O` [1-135] yielded an EC50 of 1000 nM. For `CC(C)CCn1ccc(-c2ccc(OCCC3(C)OCCO3)cc2)c(C#N)c1=O` [1-136], the EC50 was 631 nM. For `CC(C)CCn1ccc(-c2ccc(OCCOC3CCCCO3)cc2)c(C#N)c1=O` (centres unmarked) [1-137], the EC50 was 1000 nM. With `COc1cc(-c2ccn(CCC(C)C)c(=O)c2C#N)ccc1OCCOC1CCCCO1` (centres unmarked) [1-138] the EC50 was 794 nM. With `CC(C)CCn1ccc(-c2ccc(OCCN3CCOCC3)cc2)c(C#N)c1=O` [1-139] the EC50 was 3980 nM. With `CC(C)CCn1ccc(-c2ccc(Oc3ccccc3)cc2)c(C#N)c1=O` [1-140] the EC50 was 39.8 nM. Compound `CC(C)CCn1ccc(-c2ccc(OCc3ccccc3)cc2)c(C#N)c1=O` [1-141] has an EC50 of 63.1 nM. `COc1cc(-c2ccn(CCC(C)C)c(=O)c2C#N)ccc1OCc1ccccc1` [1-142] was tested, and the EC50 was 316 nM. With `CC(C)CCn1ccc(-c2ccc(Oc3ccccn3)cc2)c(C#N)c1=O` [1-154] the EC50 was 501 nM. `CC(C)CCn1ccc(-c2ccc(COc3ccncc3)cc2)c(C#N)c1=O` [1-160] showed an EC50 of 631 nM. `CC(C)CCn1ccc(-c2ccc(Oc3ccncc3)cc2F)c(C#N)c1=O` [1-161] showed an EC50 of 631 nM. With `CC(C)CCn1ccc(-c2ccc(OCc3ccncc3)c(Cl)c2)c(C#N)c1=O` [1-165] the EC50 was 79.4 nM. `COc1cc(-c2ccn(CCC(C)C)c(=O)c2C#N)ccc1OCc1cccnc1` [1-166] gave an EC50 of 1580 nM. In the case of `COc1cc(-c2ccn(CCC(C)C)c(=O)c2C#N)ccc1OCc1ccncc1` [1-167], the EC50 is reported as 501 nM. Compound `CC(C)CCn1ccc(-c2ccc(OCc3nnc[nH]3)cc2)c(C#N)c1=O` [1-168] has an EC50 of 6310 nM. `CC(C)CCn1ccc(-c2ccc(N)cc2)c(C#N)c1=O` [1-170] was tested, and the EC50 was 794 nM. `COCCNc1ccc(-c2ccn(CCC(C)C)c(=O)c2C#N)cc1` [1-174] gave an EC50 of 1580 nM. In the case of `CC(=O)CCNc1ccc(-c2ccn(CCC(C)C)c(=O)c2C#N)cc1` [1-180], the EC50 is reported as 316 nM. `CC(=O)NCCNc1ccc(-c2ccn(CCC(C)C)c(=O)c2C#N)cc1` [1-182] showed an EC50 of 3160 nM. Compound `COc1cc(-c2ccn(CCC(C)C)c(=O)c2C#N)ccc1NC(C)C` [1-183] has an EC50 of 251 nM. `COc1cc(-c2ccn(CCC(C)C)c(=O)c2C#N)ccc1CNC(C)=O` [1-184] showed an EC50 of 3980 nM. `COCCN(C)c1ccc(-c2ccn(CCC(C)C)c(=O)c2C#N)cc1OC` [1-185] was tested, and the EC50 was 1000 nM. `CC(C)CCn1ccc(-c2ccc(NC3CC3)cc2)c(C#N)c1=O` [1-187] showed an EC50 of 126 nM. `CC(C)CCn1ccc(-c2ccc(NC3CCCCC3)cc2)c(C#N)c1=O` [1-188] was tested, and the EC50 was 50.1 nM. `CC(C)CCn1ccc(-c2ccc(Nc3ccccc3)cc2)c(C#N)c1=O` [1-193] gave an EC50 of 5010 nM. `CC(C)CCn1ccc(-c2ccc(NCc3ccccc3)cc2)c(C#N)c1=O` [1-194] was tested, and the EC50 was 63.1 nM. With `CC(C)CCn1ccc(-c2ccc(N(C)c3ccccc3)cc2)c(C#N)c1=O` [1-195] the EC50 was 126 nM. `CC(C)CCn1ccc(-c2ccc(N(C)Cc3ccccc3)cc2)c(C#N)c1=O` [1-196] showed an EC50 of 39.8 nM. With `CC(C)CCn1ccc(-c2ccc(CN(C)Cc3ccc(F)cc3)cc2)c(C#N)c1=O` [1-197] the EC50 was 251 nM. `CC(C)CCn1ccc(-c2ccc(CNCc3ccccc3F)cc2)c(C#N)c1=O` [1-198] showed an EC50 of 1260 nM. `CC(=O)Nc1ccc(-c2ccn(CCC(C)C)c(=O)c2C#N)cc1F` [1-201] was tested, and the EC50 was 3980 nM. `CC(C)CCn1ccc(-c2ccc(NCc3ccc(OC(F)(F)F)cc3)cc2)c(C#N)c1=O` [1-205] showed an EC50 of 251 nM. For `CC(C)CCn1ccc(-c2ccc(Nc3ccncc3)cc2)c(C#N)c1=O` [1-208], the EC50 was 1260 nM. `CC(C)CCn1ccc(-c2ccc(NCc3cccnc3)cc2)c(C#N)c1=O` [1-209] showed an EC50 of 1260 nM. Compound `Cc1ccc(-c2ccn(CCC(C)C)c(=O)c2C#N)cc1[N+](=O)[O-]` [1-214] has an EC50 of 794 nM. Work on `CC(C)CCn1ccc(-c2ccc(NC3CCS(=O)(=O)CC3)cc2)c(C#N)c1=O` [1-217] yielded an EC50 of 2510 nM. Compound `CC(C)CCn1ccc(-c2ccc(N3CCCC3)cc2)c(C#N)c1=O` [1-218] has an EC50 of 200 nM. `CC(C)CCn1ccc(-c2ccc(N3CCCCC3)cc2)c(C#N)c1=O` [1-219] showed an EC50 of 200 nM. For `COC1CCN(c2ccc(-c3ccn(CCC(C)C)c(=O)c3C#N)cc2)CC1` [1-221], the EC50 was 398 nM. For `CC(=O)N1CCN(c2ccc(-c3ccn(CCC(C)C)c(=O)c3C#N)cc2)CC1` [1-231], the EC50 was 1580 nM. `CC(C)CCn1ccc(-c2ccc(N3CCN(c4ccccc4)CC3)cc2)c(C#N)c1=O` [1-233] gave an EC50 of 631 nM. `CC(C)CCn1ccc(-c2ccc(N3CCN(c4ccncc4)CC3)cc2)c(C#N)c1=O` [1-234] gave an EC50 of 1260 nM. `CC(C)CCn1ccc(-c2ccc(-n3ccnn3)cc2)c(C#N)c1=O` [1-236] was tested, and the EC50 was 2000 nM. In the case of `CC(C)CCn1ccc(-c2ccc(N3Cc4ccccc4C3)cc2)c(C#N)c1=O` [1-237], the EC50 is reported as 398 nM. `COC(=O)c1cccc(-c2ccn(CCC(C)C)c(=O)c2C#N)c1` [1-242] gave an EC50 of 3980 nM. `CC(C)CCn1ccc(-c2ccc(C3(C(N)=O)CC3)cc2)c(C#N)c1=O` [1-246] showed an EC50 of 3980 nM. Work on `CC(C)CCn1ccc(-c2ccc(Cn3ccnc3)cc2)c(C#N)c1=O` [1-248] yielded an EC50 of 3160 nM. `CC(C)CCn1ccc(-c2ccc(N3CCCC3=O)cc2)c(C#N)c1=O` [1-249] was tested, and the EC50 was 3980 nM. `CC(C)CCn1ccc(-c2ccc(-c3cnco3)cc2)c(C#N)c1=O` [1-250] was tested, and the EC50 was 1580 nM. `CC(C)CCn1ccc(-c2ccc3c(c2)OCCO3)c(C#N)c1=O` [1-253] gave an EC50 of 501 nM. With `CC(C)CCn1ccc(-c2ccc(CSc3ccncc3)cc2)c(C#N)c1=O` [1-258] the EC50 was 316 nM. Work on `CC(C)CCn1ccc(-c2ccc3sccc3c2)c(C#N)c1=O` [1-259] yielded an EC50 of 200 nM. Compound `CC(C)CCn1ccc(CCc2ccccc2)c(C#N)c1=O` [1-260] has an EC50 of 1260 nM. `CC(C)CCn1ccc(C=Cc2ccccc2)c(C#N)c1=O` [1-261] was tested, and the EC50 was 200 nM. In the case of `CC(C)CCn1ccc(CCc2cccc(N(C)C)c2)c(C#N)c1=O` [1-262], the EC50 is reported as 1580 nM. In the case of `CC(C)CCn1ccc(CCc2ccc(N(C)C)cc2)c(C#N)c1=O` [1-263], the EC50 is reported as 1000 nM. Work on `COc1cccc(CCc2ccn(CCC(C)C)c(=O)c2C#N)c1` [1-264] yielded an EC50 of 1580 nM.
